Assays:
[1] = test system: Pseudomonas aeruginosa; assay: Prevention of Pseudomonas aeruginosa attachment by synthetic peptides; type: cell-based; details: for anti adherence activity on P. aeruginosa: FIG. 3
Experimental: The synthetic peptide grZ28C [[…] (SEQ ID NO: 1)] gave approximately 50% prevention of Pseudomonas aeruginosa attachment at three concentrations: 50, 5 and 0.5 μg/ml (FIG. 1). The activity was similar to that of the AbacZ17C, peptide based on the anemone cytotoxin active region. Abac10C, which was used as a negative control peptide, was synthesized based on the N-terminal sequence of Abac17C, without the active residue [[…] (SEQ ID NO: 27)].
For peptide grZ35 cyc, the peptide sequence […] (SEQ ID NO: 6) which represents the extracellular region, residue 259-292, was synthesized with two Cysteines in the C and N termini and S—S bridged. For peptide grZ28C, the peptide sequence […] (SEQ ID NO: 3) which represents the extracellular region, residue 259-284, was synthesized with two Cysteines in C and N termini.

[2] = test system: Pseudomonas aeruginosa; assay: Growth test on Pseudomonas aeruginosa; type: cell-based; details: FIG. 2, FIG. 4
[3] = test system: P. aeruginosa strain 6294; assay: Bacterial adhesion assay on contact lenses, P. aeruginosa strain 6294; type: cell-based, Pseudomonas aeruginosa; details: for log inhibition of P. aeruginosa 6294 adhesion: 18 hours; for percentage of inhibition of P. aeruginosa 6294 adhesion: TLF
Experimental: (§1) The peptide APi1775 (gr14Z-BBC2) according to SEQ ID NO: 28 was immobilized onto Etafilcon A™ (Johnson & Johnson Vision Care Inc., Jacksonville, Fla., USA; Base curve: 8.7 mm, Diameter: 14.0 mm) contact lenses. […] The coating (covalently bonding the peptide to the surface of the contact lenses) procedure was performed by activating the surface of the contact lenses with carboxyl-reactive crosslinker reactive groups EDC (1-ethyl-3-(-3-dimethylaminopropyl) carbodiimide hydrochloride, MW 191.70) followed by incubation with APi1775 (gr14Z-BBC2) at 0.1 μM 1.0 μM and 10 μM peptide concentration. Peptide grZ14s-nyCyc-3PEG-Pal soaked (1 μM) contact lenses were used as positive control, this peptide is used for non-covalent coating of contact lenses.
(§2) Antimicrobial activity was determined against P. aeruginosa strain 6294 (isolated from a case of microbial keratitis), P. aeruginosa strong biofilm produces strain 142 (isolated from a case of microbial keratitis) and S. aureus strain 31 (isolated from a case of contact lens-induced peripheral ulcer) following established methods. Briefly, P. aeruginosa and S. aureus were grown overnight in tryptone soya broth (TSB; Oxoid, Basingstoke, UK) and re-suspended in 1/10 TSB and PBS respectively to an OD660 nm of 0.1 (1.0×10^8 colony-forming unit (CFU) per ml). The bacterial cell suspensions were then diluted to […] for adhesion assays. Non-coated control, process control, APi1775 peptide coated and grZ14s-nvCyc-3PEG-Pal soaked lenses were washed in PBS and transferred to 1 ml of bacterial suspension in 24 well tissue culture plates (CELESTAR®, Greiner bio-one, Frickenhausen, Germany), and incubated at 37° C. for 18 hours with shaking (120 rpm). For P. aeruginosa strain 6294, the assay was performed with PBS and tear Like Fluid (TFL), for P. aeruginosa strain 142 the assay was performed with PBS and for S. aureus the assay was performed using 1/10 TSB. Lenses were washed three times following incubation with PBS to remove loosely adhered bacteria, then stirred in a vortex mixer rapidly in 2 ml of fresh PBS containing a small magnetic stirring bar. The resulting slurry was serially diluted and 20 μl was added onto nutrient agar (TSA; Oxoid, Basingstoke, UK) for recovery of cells. After incubation at 37° C. for 18 hours, viable microorganisms were enumerated as CFU for each lens. Measurements were performed in triplicates for at least three occasions.
(§3) Data were analyzed using Microsoft Office Excel and Statistical Package for the Social Sciences software version 23.0 (SPSS, Inc., Chicago, Ill.). The bacterial adhesion data were log10 (x+1) transformed prior to analysis where x is the adherent bacteria CFU/lens. Bacterial adhesion, contact lens surface elemental composition, and contact lens parameters were analysed using an independent 2-sample t-test, and expressed with descriptive statistics. Statistical significance was set at 5%.

[4] = test system: P. aeruginosa strong biofilm producer strain 142; assay: Bacterial adhesion assay on contact lenses, P. aeruginosa strong biofilm producer strain 142; type: cell-based, Pseudomonas aeruginosa; details: PBS (No-TLF)
Experimental: as §1, §2, §3

[5] = test system: Murine L929 cells; assay: In vitro cytotoxicity of immobilised contact lenses (ISO 10993-5, Trypan Blue); type: cell-based; details: peptide coated contact lenses (0.1, 1.0, 10.0 μM) on murine L929 monolayer, 24 h
Experimental: Testing in vitro cytotoxicity of APi1775 (gr14Z-BBC2) immobilised contact lenses was performed according to ISO standard 10993-5 standardized procedures. Murine L929 cells were grown to >80% confluency in 24 well tissue culture plates (CELESTAR®, Greiner bio-one, Frickenhausen, Germany) with DMEM cell culture media. The medium was aspirated and replaced with adequate fresh growth medium every 2-3 days. All the test and control contact lenses were washed with sterile PBS prior to the start of the study and then directly placed on the cell monolayer for examination of in vitro cytotoxicity. During this any cytotoxicity of the lenses will disrupt the normal functions of cells beneath and perhaps adjacent to the samples. The samples were incubated overnight at 37° C. with 5% CO2. After 24 hours, cells were stained with vital stain (Trypan Blue; Sigma-Aldrich, St Louis, Mo., USA) and cytotoxicity was assessed using bright field and phase-contrast microscopy. Cytotoxic responses are graded according to a standard key, which quantifies the viability and zonal extent. The samples were used in triplicates.

[6] = Dissolution of peptide in Phosphate Buffer Saline (visual inspection); type: physicochemical
[7] = lens coated with 0.1 μM peptide, PBS
[8] = lens coated with 1.0 μM peptide, PBS
[9] = lens coated with 10.0 μM peptide, PBS
[10] = lens treated with 0.1 μM peptide
[11] = lens treated with 1.0 μM peptide
[12] = lens treated with 10.0 μM peptide

CSFSQNKSVHSFDYDWYNVSDQADLKNC (SEQ ID NO: 1) [grZ28C]
anti adherence activity on P. aeruginosa [1]: anti adherence activity | prevention of Pseudomonas aeruginosa attachment ([1]; at three concentrations: 50, 5 and 0.5 μg/ml (FIG. 1)): approximately 50% | effect on P. aeruginosa growth [2]: not inhibited

SFSQNKSVHSFDYDWYNVSDQADLKNQLGDAGYV (SEQ ID NO: 6) [grZ35 cyc]
anti adherence activity on P. aeruginosa [1]: anti adherence activity | effect on P. aeruginosa growth [2]: not inhibited

SVHSFDYDWYNV (SEQ ID NO: 28) (immobilized on Etafilcon A contact lens) [APi1775]
percentage inhibition of P. aeruginosa 6294 adhesion [3, 7]: 77.1% | log inhibition of P. aeruginosa 6294 adhesion [3, 7]: 0.79 log | percentage inhibition of P. aeruginosa 6294 adhesion [3, 8]: 77.5% | log inhibition of P. aeruginosa 6294 adhesion [3, 8]: 0.83 log | percentage inhibition of P. aeruginosa 6294 adhesion [3, 9]: 47.7% | log inhibition of P. aeruginosa 6294 adhesion [3, 9]: 0.29 log | percentage of inhibition of P. aeruginosa 6294 adhesion [3, 10]: 31.76% | log inhibition of P. aeruginosa 6294 adhesion ([3]; lens treated with 0.1 μM peptide, Tear Like Fluid (TLF)): 0.17 log | percentage of inhibition of P. aeruginosa 6294 adhesion [3, 11]: 80.40% | log inhibition of P. aeruginosa 6294 adhesion ([3]; lens treated with 1.0 μM peptide, Tear Like Fluid (TLF)): 0.71 log | percentage of inhibition of P. aeruginosa 6294 adhesion [3, 12]: 96.64% | log inhibition of P. aeruginosa 6294 adhesion ([3]; lens treated with 10.0 μM peptide, Tear Like Fluid (TLF)): 1.47 log | inhibition of bacterial adhesion, strain 142 [4, 10]: 44.73% | log inhibition of P. aeruginosa strain 142 adhesion [4, 10]: 0.26 log | inhibition of bacterial adhesion, strain 142 [4, 11]: 43.62% | log inhibition of P. aeruginosa strain 142 adhesion [4, 11]: 0.25 log | inhibition of bacterial adhesion, strain 142 [4, 12]: 77.80% | log inhibition of P. aeruginosa strain 142 adhesion [4, 12]: 0.65 log | cytotoxicity to mammalian cells in vitro [5]: not cytotoxic | dissolution in Phosphate Buffer Saline ([6]; 0.1 μM, 1.0 μM concentration): completely dissolved | dissolution in Phosphate Buffer Saline ([6]; 10.0 μM, rotary shaker at 37° C. overnight, visual inspection): completely dissolved

From patent US11174299B2, “Peptides and compositions for prevention of cell adhesion and methods of using same” (D[…]., priority 2008, dated 2021)
